From patent US10947242B2, “[1,2,4]triazolo[1,5and#8208;A]pyrimidine compounds as PDE2 inhibitors” (Janssen Pharmaceutica NV, priority 2016, dated 2021)
Read-outs that look alike come from different tables or passages of the source.

Key:
[1] = molecular target: T1, Human recombinant PDE2A (hPDE2A) (Homo sapiens, UniProt O00408); experiment: In vitro assay PDE2A (SPA, 3H-cGMP hydrolysis); type: biochemical; details: for Emax: read-out: hPDE2A Emax
T1 construct: His tag (inferred from metal chelate purification); made in house; host or cells: Sf9 insect cells (baculovirus)

[2] = molecular target: T2, Human recombinant PDE3A (hPDE3A) (Homo sapiens, UniProt Q14432); experiment: In vitro assay PDE3A (SPA, 3H-cAMP hydrolysis); type: biochemical; details: for IC50: hPDE3B pIC50, read-out: pIC50 (converted); for Emax: read-out: hPDE3B Emax, read-out: Emax;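 as to all read-outs here: the method names PDE3A and the table heading PDE3B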
T2 construct: purchased Scottish Biomedical; host or cells: Sf9 insect cells
Outline: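 Radiometric SPA measuring [3H]-cAMP hydrolysis (0.4 μM cAMP, 2.4 μCi/ml) over 60 min at room temperature, in Tris pH 7.8 buffer with MgCl2 and EGTA, 1% DMSO. Enzyme: recombinant human brain PDE3A expressed in Sf9 cells, used as partially purified lysate. Counts compared with enzyme-free blanks and vehicle controls.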

[3] = molecular target: T3, Human recombinant PDE10A (hPDE10A) (Homo sapiens, UniProt Q9Y233); experiment: In vitro assay PDE10A, human clone (SPA, 3H-cAMP hydrolysis); type: biochemical
T3 construct: His tag (inferred from metal chelate purification); made in house; host or cells: Sf9 insect cells (baculovirus)
Outline: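 Hydrolysis of 3H-cAMP (60 nM cAMP, 0.008 μCi tracer) proceeded for 60 min at room temperature, with the product detected by SPA bead scintillation counting. The enzyme was hPDE10A from baculovirus-infected Sf9 cells in Tris pH 7.8 buffer with MgCl2 and EGTA, and compounds were at 1% DMSO final. Blanks lacked enzyme.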

[4] = human recombinant PDE2A, 10 μM cGMP substrate, read-out: hPDE2A pIC50 (converted)
[5] = read-out: hPDE2A pIC50 (converted)
[6] = human clone (h), default, read-out: hPDE10A2 Emax
[7] = human clone (h), default, read-out: hPDE10A2 pIC50 (converted)
[8] = hPDE2A pIC50, human recombinant PDE2A, 10 μM cGMP substrate
[9] = human clone by default (no (r) mark), read-out: hPDE10A2 or rPDE10A2 Emax
[10] = human clone by default (no (r) mark), read-out: hPDE10A2 or rPDE10A2 pIC50 (converted)

T2 sequence (Q14432 whole entry): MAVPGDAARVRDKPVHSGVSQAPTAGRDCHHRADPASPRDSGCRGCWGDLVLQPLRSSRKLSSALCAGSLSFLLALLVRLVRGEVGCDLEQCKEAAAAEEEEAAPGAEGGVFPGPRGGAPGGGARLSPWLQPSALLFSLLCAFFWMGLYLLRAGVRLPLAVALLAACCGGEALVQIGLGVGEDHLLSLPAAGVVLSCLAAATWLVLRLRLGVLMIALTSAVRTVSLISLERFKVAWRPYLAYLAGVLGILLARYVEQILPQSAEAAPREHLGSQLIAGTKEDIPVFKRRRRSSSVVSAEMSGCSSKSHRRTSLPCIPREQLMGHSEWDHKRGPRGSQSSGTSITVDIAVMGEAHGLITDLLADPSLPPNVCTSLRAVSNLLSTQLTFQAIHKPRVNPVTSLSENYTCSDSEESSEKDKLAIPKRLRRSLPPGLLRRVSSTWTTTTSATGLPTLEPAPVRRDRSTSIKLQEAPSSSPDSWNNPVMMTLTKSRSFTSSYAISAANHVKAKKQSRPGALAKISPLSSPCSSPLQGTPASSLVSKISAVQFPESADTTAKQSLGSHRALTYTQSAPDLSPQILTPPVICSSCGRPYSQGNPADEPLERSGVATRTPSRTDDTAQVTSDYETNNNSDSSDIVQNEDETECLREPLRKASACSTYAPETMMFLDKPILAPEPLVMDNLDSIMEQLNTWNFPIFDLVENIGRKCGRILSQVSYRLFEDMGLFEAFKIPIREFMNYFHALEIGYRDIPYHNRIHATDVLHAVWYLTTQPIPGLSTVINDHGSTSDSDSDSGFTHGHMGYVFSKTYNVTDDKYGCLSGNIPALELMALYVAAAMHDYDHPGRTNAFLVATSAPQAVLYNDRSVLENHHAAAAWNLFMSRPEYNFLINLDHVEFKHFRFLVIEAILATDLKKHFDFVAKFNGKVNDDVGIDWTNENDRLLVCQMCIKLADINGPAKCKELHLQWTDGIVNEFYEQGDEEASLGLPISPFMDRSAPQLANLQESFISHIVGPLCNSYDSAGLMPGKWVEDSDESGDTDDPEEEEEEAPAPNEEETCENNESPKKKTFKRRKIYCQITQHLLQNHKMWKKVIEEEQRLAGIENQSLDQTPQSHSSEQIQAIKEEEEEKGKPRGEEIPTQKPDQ
T3 sequence (Q9Y233 267-1055): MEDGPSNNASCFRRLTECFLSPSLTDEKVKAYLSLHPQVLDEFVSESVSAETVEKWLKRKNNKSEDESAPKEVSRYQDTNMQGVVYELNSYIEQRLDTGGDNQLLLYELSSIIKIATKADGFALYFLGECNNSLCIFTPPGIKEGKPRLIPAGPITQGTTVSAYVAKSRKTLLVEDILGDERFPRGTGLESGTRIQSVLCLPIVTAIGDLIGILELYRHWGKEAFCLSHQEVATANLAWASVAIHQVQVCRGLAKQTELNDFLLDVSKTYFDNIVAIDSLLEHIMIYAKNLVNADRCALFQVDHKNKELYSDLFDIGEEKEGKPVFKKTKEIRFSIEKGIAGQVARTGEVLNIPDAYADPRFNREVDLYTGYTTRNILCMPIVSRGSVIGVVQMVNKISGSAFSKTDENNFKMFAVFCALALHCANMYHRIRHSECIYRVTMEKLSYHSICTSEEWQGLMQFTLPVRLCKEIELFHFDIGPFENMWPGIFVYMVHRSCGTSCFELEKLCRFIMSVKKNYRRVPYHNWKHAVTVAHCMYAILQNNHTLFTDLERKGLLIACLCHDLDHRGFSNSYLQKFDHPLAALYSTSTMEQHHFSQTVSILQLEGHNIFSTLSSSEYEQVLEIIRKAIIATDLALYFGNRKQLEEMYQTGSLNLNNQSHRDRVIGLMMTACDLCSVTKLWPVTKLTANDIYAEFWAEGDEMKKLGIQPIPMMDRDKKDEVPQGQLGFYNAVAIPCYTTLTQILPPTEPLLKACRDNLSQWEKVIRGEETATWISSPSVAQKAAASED
T1 sequence (O00408 whole entry): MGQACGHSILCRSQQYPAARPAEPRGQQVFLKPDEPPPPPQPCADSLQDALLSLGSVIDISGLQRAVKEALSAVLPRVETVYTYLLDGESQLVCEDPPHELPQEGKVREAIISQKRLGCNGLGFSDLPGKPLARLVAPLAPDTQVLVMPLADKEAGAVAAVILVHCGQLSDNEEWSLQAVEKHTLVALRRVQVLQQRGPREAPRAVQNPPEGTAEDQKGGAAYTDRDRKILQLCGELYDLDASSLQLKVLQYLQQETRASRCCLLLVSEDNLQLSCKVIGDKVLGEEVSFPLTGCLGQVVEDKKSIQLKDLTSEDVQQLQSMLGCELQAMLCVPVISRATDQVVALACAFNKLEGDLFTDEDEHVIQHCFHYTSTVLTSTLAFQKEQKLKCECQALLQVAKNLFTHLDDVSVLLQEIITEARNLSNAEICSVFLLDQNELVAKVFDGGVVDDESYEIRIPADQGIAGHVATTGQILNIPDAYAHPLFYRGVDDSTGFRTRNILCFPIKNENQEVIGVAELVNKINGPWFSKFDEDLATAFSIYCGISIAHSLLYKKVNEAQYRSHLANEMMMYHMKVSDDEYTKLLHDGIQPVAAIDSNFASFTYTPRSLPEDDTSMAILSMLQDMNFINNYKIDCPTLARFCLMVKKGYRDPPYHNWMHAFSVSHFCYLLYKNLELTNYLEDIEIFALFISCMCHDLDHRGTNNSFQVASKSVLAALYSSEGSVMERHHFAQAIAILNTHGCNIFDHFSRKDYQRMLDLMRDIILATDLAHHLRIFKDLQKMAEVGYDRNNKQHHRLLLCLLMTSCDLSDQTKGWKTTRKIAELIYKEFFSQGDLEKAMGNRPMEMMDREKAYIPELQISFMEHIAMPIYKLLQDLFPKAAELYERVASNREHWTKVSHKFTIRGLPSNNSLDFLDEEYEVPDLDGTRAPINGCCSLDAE

Compound | IC50 [1, 4] [nM] | Emax ([1]; human recombinant PDE2A) [%] | Emax [1] [%] | IC50 [1, 5] [nM] | IC50 [2] [nM] | Emax [2] [%] | Emax [3, 6] [%] | IC50 [3, 7] [nM] | melting point [°C] | IC50 ([1]; hPDE2A pIC50) [nM] | IC50 [1, 8] [nM] | Emax [3, 9] [%] | IC50 [3, 10] [nM]
Cc1cc(C)cc(C(=O)N2CCC[C@](C)(c3cc(C(F)F)nc4ncnn34)C2)c1 (single isomer, unassigned) [Compound 206] | 1660 | 39 | 39 | 1660 | > 10000 | -1 | 16 | > 10000 | 145.73 |  |  |  | 
Cc1nn(C)cc1C(=O)N1CCC[C@](C)(c2cc(C(F)F)nc3ncnn23)C1 (single isomer, unassigned) [Compound 207] | 7940 | 21 | 21 | 7940 | > 10000 | 2 | -5 | > 10000 | 173.79 |  |  |  | 
C[C@]1(c2cc(C(F)F)nc3ncnn23)CCCN(C(=O)c2ccc3occc3c2)C1 (single isomer, unassigned) [Compound 209] | 724 | 57 | 57 | 724 | > 10000 | 25 | 7 | > 10000 | 145.19 |  |  |  | 
Cc1ccc(C(=O)N2CCC[C@](C)(c3cc(C(F)F)nc4ncnn34)C2)c(C)n1 (single isomer, unassigned) [Compound 210] | 617 | 56 | 56 | 617 | > 10000 | 5 | 16 | > 10000 | 195.81 |  |  |  | 
Cc1cc(C(=O)N2CCC[C@](C)(c3cc(C(F)F)nc4ncnn34)C2)cc(C)n1 (single isomer, unassigned) [Compound 211] | > 10000 | 3 | 3 | > 10000 | > 10000 | 13 | 10 | > 10000 | 117.5 |  |  |  | 
Cc1cc(C(=O)N2CC[C@@H](C)[C@H](c3cc(C)nc4ncnn34)C2)cc(C2CC2)n1 [Compound 23] |  |  | 101 |  | 1050 | 90 | 100 | 7.08 | 169.13 | 0.468 | 0.468 |  | 
C[C@@H]1CCN(C(=O)c2ccc(Cl)c(Cl)c2)C[C@H]1c1cc(C(F)F)nc2ncnn12 [Compound 111] | 0.977 | 100 | 100 | 0.977 | 1050 | 92 | 99 | 38 | 188.75 |  |  |  | 
COc1cc(C(=O)N2CC[C@@H](C)[C@H](c3cc(C(F)F)nc4ncnn34)C2)ccc1C1CC1 [Compound 118] | 1.66 | 101 | 101 | 1.66 | 955 | 92 | 99 | 74.1 | 179.82 |  |  |  | 
Cc1cc(C)nc(C(=O)N2CC[C@@H](C)[C@H](c3cc(C(F)F)nc4ncnn34)C2)c1 [Compound 137] | 28.2 | 100 | 100 | 28.2 | > 10000 | 35 | 84 | 1350 | 229.91 |  |  |  | 
C[C@@H]1CCN(C(=O)c2ccc(F)c(C(F)(F)F)c2)C[C@H]1c1cc(C(F)F)nc2ncnn12 [Compound 194] | 18.6 | 99 | 99 | 18.6 | 4570 | 57 | 97 | 263 | 167.52 |  |  |  | 
Cc1csc(C(=O)N2CC[C@H](C)[C@@H](c3cc(C(F)F)nc4ncnn34)C2)c1 [Compound 213] | 2340 | 28 | 28 | 2340 | > 10000 | 11 | 23 | > 10000 | 169.7 |  |  |  | 
Cc1cc(C)cc(C(=O)N2CC[C@H](C)[C@@H](c3cc(C(F)F)nc4ncnn34)C2)c1 [Compound 214] |  |  | 9 |  | > 10000 | 9 | 30 | > 10000 | 203.97 | 6310 | 6310 | 30 | > 10000
Cc1cc([C@@H]2CN(C(=O)c3cc(Cl)ncc3Cl)CC[C@H]2C)n2ncnc2n1 [Compound 271] |  |  | 99 | 2.95 | 7410 | 61 | 95 | 162 | 247.4 |  |  | 95 | 162
C[C@@H]1CCN(C(=O)c2ccc3ncccc3c2)C[C@H]1c1cc(C(F)F)nc2ncnn12 [Compound 322] |  |  | 100 | 0.501 | 479 | 95 |  |  | 180.27 |  |  | 99 | 18.6
C[C@@H]1CCN(C(=O)c2cnc3ccccc3c2)C[C@H]1c1cc(C(F)F)nc2ncnn12 [Compound 324] |  |  | 100 | 0.851 | 263 | 97 |  |  | 204.06 |  |  | 100 | 66.1
C[C@@H]1CCN(C(=O)c2cnc3c(F)cccc3c2)C[C@H]1c1cc(C(F)F)nc2ncnn12 [Compound 325] |  |  | 100 | 1.15 | 309 | 98 |  |  | 226.36 |  |  | 98 | 64.6
C[C@@H]1CCN(C(=O)c2ccc3c(ccn3C)c2)C[C@H]1c1cc(C(F)F)nc2ncnn12 [Compound 327] |  |  | 101 | 0.417 | 77.6 | 99 |  |  | 194.86 |  |  | 100 | 20.4
C[C@@H]1CCN(C(=O)c2cnc3c(Cl)cccc3c2)C[C@H]1c1cc(C(F)F)nc2ncnn12 [Compound 329] |  |  | 100 | 0.55 | 204 | 95 |  |  | 227.79 |  |  | 100 | 21.4
C[C@@H]1CCN(C(=O)c2ccc3ccccc3c2)C[C@H]1c1cc(C(F)F)nc2ncnn12 [Compound 331] |  |  | 98 | 0.479 | 50.1 | 99 |  |  | 193.87 |  |  | 100 | 14.5
O=C(c1cc(Cl)cc(Cl)c1)N1[C@H]2CC[C@H](c3cc(C(F)F)nc4ncnn34)[C@@H]1CC2 [Compound 333] |  |  | 99 | 8.13 | 6920 | 63 |  |  | 291.55 |  |  | 93 | 708
CC(C)n1ccc2cc(C(=O)N3[C@H]4CC[C@H](c5cc(C(F)F)nc6ncnn56)[C@@H]3CC4)ccc21 [Compound 355] |  |  | 99 | 0.933 | 724 | 98 |  |  | 146.08 |  |  | 98 | 234
O=C(c1cn2ccsc2n1)N1[C@H]2CC[C@H](c3cc(C(F)F)nc4ncnn34)[C@@H]1CC2 [Compound 360] |  |  | 97 | 40.7 | 8510 | 50 |  |  | 264.8 |  |  | 55 | 6920
Cc1cc(C(=O)N2[C@H]3CC[C@H](c4cc(C(F)F)nc5ncnn45)[C@@H]2CC3)ccc1Cl [Compound 375] |  |  | 101 | 3.55 | 4470 | 73 |  |  | 171.51 |  |  | 94 | 813
COc1ccc(C(=O)N2[C@H]3CC[C@H](c4cc(C(F)F)nc5ncnn45)[C@@H]2CC3)cc1Cl [Compound 376] |  |  | 101 | 4.27 | 3390 | 79 |  |  | 175.71 |  |  | 97 | 309
O=C(c1ccc(F)c(Cl)c1)N1[C@H]2CC[C@H](c3cc(C(F)F)nc4ncnn34)[C@@H]1CC2 [Compound 377] |  |  | 99 | 17.8 | 9770 | 47 |  |  | 183.67 |  |  | 89 | 1290
